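Results reflect a 48-hour exposure of cells in 96-well plates to compound at five concentrations. Abbreviation: GI50, concentration required for 50% inhibition of growth. TGI denotes the concentration required for complete inhibition of growth.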
How the values were obtained:
Experiment in all cases: NCI-60 cell line screen, 48 h
[1] = test system: 786-0 renal
[2] = test system: A498 renal
[3] = test system: A549 NSCLC
[4] = test system: ACHN renal
[5] = test system: BT-549 breast
[6] = test system: CAKI-1 renal
[7] = test system: CCRF-CEM leukemia
[8] = test system: COLO 205 colon
[9] = test system: DU-145 prostate
[10] = test system: EKVX NSCLC
[11] = test system: HCC-2998 colon
[12] = test system: HCT-116 colon
[13] = test system: HCT-15 colon
[14] = test system: HL-60(TB) leukemia
[15] = test system: HOP-62 NSCLC
[16] = test system: HOP-92 NSCLC
[17] = test system: HS 578T breast
[18] = test system: HT29 colon
[19] = test system: IGROV1 ovarian
[20] = test system: K-562 leukemia
[21] = test system: KM12 colon
[22] = test system: LOX IMVI melanoma
[23] = test system: M14 melanoma
[24] = test system: MALME-3M melanoma
[25] = test system: MCF7 breast
[26] = test system: MDA-MB-231 breast
[27] = test system: MDA-MB-435
[28] = test system: MOLT-4 leukemia
[29] = test system: NCI-H226 lung
[30] = test system: NCI-H460 lung
[31] = test system: NCI-H522 lung
[32] = test system: NCI/ADR-RES ovarian
[33] = test system: OVCAR-3 ovarian
[34] = test system: OVCAR-4 ovarian
[35] = test system: OVCAR-5 ovarian
[36] = test system: OVCAR-8 ovarian
[37] = test system: PC-3 prostate
[38] = test system: RPMI-8226 leukemia
[39] = test system: RXF 393 renal
[40] = test system: SF-268 CNS
[41] = test system: SF-295 CNS
[42] = test system: SF-539 CNS
[43] = test system: SK-MEL-2 melanoma
[44] = test system: SK-MEL-28 melanoma
[45] = test system: SK-MEL-5 melanoma
[46] = test system: SK-OV-3 ovarian
[47] = test system: SN12C renal
[48] = test system: SNB-19 CNS
[49] = test system: SNB-75 CNS
[50] = test system: SR leukemia
[51] = test system: SW-620 colon
[52] = test system: T-47D breast
[53] = test system: TK-10 renal
[54] = test system: U251 CNS
[55] = test system: UACC-257 melanoma
[56] = test system: UACC-62 melanoma
[57] = test system: UO-31 renal

For Cc1cc2nc3c4cc(Cl)ccc4n(CC(=S)NCCN(C)C)c3nc2cc1C, which GI50 [1] is on record?
The GI50 was 1.64 µM.

And the TGI [1]?
The TGI was 3.2 µM.

What about the GI50 [2] of the same compound?
Its GI50 is 17.1 µM.

What about the TGI [2] of the same compound?
The TGI was 31.3 µM.

What about the GI50 [3] of the same compound?
The GI50 was 1.75 µM.

And the TGI [3]?
Its TGI is 3.52 µM.

What about the GI50 [4] of the same compound?
The GI50 was 1.6 µM.

And the TGI [4]?
Its TGI is 2.95 µM.

What about the GI50 [5] of the same compound?
The GI50 was 13.3 µM.

And the TGI [5]?
Its TGI is 26.5 µM.

And the GI50 [6]?
Its GI50 is 2.84 µM.

What about the TGI [6] of the same compound?
The TGI was 14.4 µM.

And the GI50 [7]?
The GI50 was 2.36 µM.

What about the TGI [7] of the same compound?
Its TGI is 6.17 µM.

And the GI50 [8]?
Its GI50 is 1.78 µM.

What about the TGI [8] of the same compound?
The TGI was 3.49 µM.

What about the GI50 [9] of the same compound?
The GI50 was 2.64 µM.

What about the TGI [9] of the same compound?
The TGI was 6.99 µM.

What about the GI50 [10] of the same compound?
Its GI50 is 3.07 µM.

And the TGI [10]?
Its TGI is 11.8 µM.

And the GI50 [11]?
The GI50 was 1.66 µM.

And the TGI [11]?
Its TGI is 3.09 µM.

What about the GI50 [12] of the same compound?
Its GI50 is 1.73 µM.

And the TGI [12]?
The TGI was 3.17 µM.

And the GI50 [13]?
The GI50 was 1.75 µM.

What about the TGI [13] of the same compound?
The TGI was 3.17 µM.

What about the GI50 [14] of the same compound?
Its GI50 is 1.87 µM.

What about the TGI [14] of the same compound?
Its TGI is 3.99 µM.

And the GI50 [15]?
The GI50 was 6.68 µM.

What about the TGI [15] of the same compound?
Its TGI is 21.6 µM.

What about the GI50 [16] of the same compound?
Its GI50 is 1.79 µM.

And the TGI [16]?
Its TGI is 8.06 µM.

And the GI50 [17]?
The GI50 was 11 µM.

And the TGI [17]?
The TGI was 30.8 µM.

And the GI50 [18]?
The GI50 was 1.78 µM.

And the TGI [18]?
The TGI was 3.36 µM.

And the GI50 [19]?
Its GI50 is 3.53 µM.

And the TGI [19]?
Its TGI is 15.6 µM.

And the GI50 [20]?
Its GI50 is 2.07 µM.

And the TGI [20]?
The TGI was 5.21 µM.

And the GI50 [21]?
Its GI50 is 2.73 µM.

And the TGI [21]?
Its TGI is 8.29 µM.

And the GI50 [22]?
Its GI50 is 0.241 µM.

And the TGI [22]?
Its TGI is 1.77 µM.

And the GI50 [23]?
Its GI50 is 1.64 µM.

What about the TGI [23] of the same compound?
The TGI was 3.12 µM.

And the GI50 [24]?
Its GI50 is 1.86 µM.

What about the TGI [24] of the same compound?
The TGI was 4.16 µM.

And the GI50 [25]?
Its GI50 is 1.19 µM.

What about the TGI [25] of the same compound?
The TGI was 2.51 µM.

And the GI50 [26]?
Its GI50 is 1.82 µM.

And the TGI [26]?
The TGI was 3.63 µM.

What about the GI50 [27] of the same compound?
The GI50 was 1.89 µM.

What about the TGI [27] of the same compound?
Its TGI is 3.53 µM.

And the GI50 [28]?
Its GI50 is 1.97 µM.

And the TGI [28]?
The TGI was 4.29 µM.

And the GI50 [29]?
Its GI50 is 10.5 µM.

What about the TGI [29] of the same compound?
Its TGI is 24.9 µM.

And the GI50 [30]?
Its GI50 is 1.81 µM.

What about the TGI [30] of the same compound?
Its TGI is 3.35 µM.

And the GI50 [31]?
The GI50 was 1.72 µM.

What about the TGI [31] of the same compound?
Its TGI is 3.47 µM.

And the GI50 [32]?
Its GI50 is 1.87 µM.

What about the TGI [32] of the same compound?
Its TGI is 3.7 µM.

And the GI50 [33]?
The GI50 was 2.05 µM.

What about the TGI [33] of the same compound?
The TGI was 4.67 µM.

What about the GI50 [34] of the same compound?
The GI50 was 2.81 µM.

And the TGI [34]?
The TGI was 10.2 µM.

And the GI50 [35]?
Its GI50 is 4.87 µM.

And the TGI [35]?
Its TGI is 17.6 µM.

And the GI50 [36]?
The GI50 was 1.75 µM.

What about the TGI [36] of the same compound?
The TGI was 3.39 µM.

And the GI50 [37]?
Its GI50 is 1.83 µM.

And the TGI [37]?
Its TGI is 4.84 µM.

What about the GI50 [38] of the same compound?
The GI50 was 2.75 µM.

What about the TGI [38] of the same compound?
Its TGI is 7.49 µM.

What about the GI50 [39] of the same compound?
The GI50 was 3.56 µM.

What about the TGI [39] of the same compound?
Its TGI is 14.4 µM.

What about the GI50 [40] of the same compound?
Its GI50 is 5.56 µM.

What about the TGI [40] of the same compound?
The TGI was 21.1 µM.

And the GI50 [41]?
Its GI50 is 5.56 µM.

And the TGI [41]?
Its TGI is 18.2 µM.

What about the GI50 [42] of the same compound?
The GI50 was 3.33 µM.

What about the TGI [42] of the same compound?
Its TGI is 12.2 µM.

And the GI50 [43]?
The GI50 was 14.2 µM.

And the TGI [43]?
The TGI was 27.8 µM.

And the GI50 [44]?
Its GI50 is 1.81 µM.

And the TGI [44]?
Its TGI is 3.43 µM.

What about the GI50 [45] of the same compound?
Its GI50 is 4.09 µM.

What about the TGI [45] of the same compound?
Its TGI is 14 µM.

And the GI50 [46]?
Its GI50 is 11.8 µM.

What about the TGI [46] of the same compound?
Its TGI is 24.1 µM.

And the GI50 [47]?
The GI50 was 2.07 µM.

What about the TGI [47] of the same compound?
The TGI was 4.97 µM.

What about the GI50 [48] of the same compound?
Its GI50 is 5.87 µM.

What about the TGI [48] of the same compound?
The TGI was 19.9 µM.

And the GI50 [49]?
The GI50 was 11.2 µM.

And the TGI [49]?
The TGI was 24.7 µM.

What about the GI50 [50] of the same compound?
The GI50 was 2.46 µM.

And the TGI [50]?
Its TGI is 6.23 µM.

What about the GI50 [51] of the same compound?
Its GI50 is 1.68 µM.

What about the TGI [51] of the same compound?
Its TGI is 3.15 µM.

And the GI50 [52]?
The GI50 was 5.11 µM.

And the TGI [52]?
The TGI was 20.2 µM.

And the GI50 [53]?
Its GI50 is 11.4 µM.

And the TGI [53]?
Its TGI is 24.2 µM.

And the GI50 [54]?
The GI50 was 1.71 µM.

And the TGI [54]?
The TGI was 3.17 µM.

What about the GI50 [55] of the same compound?
Its GI50 is 3.29 µM.

What about the TGI [55] of the same compound?
The TGI was 11.9 µM.

What about the GI50 [56] of the same compound?
The GI50 was 1.81 µM.

And the TGI [56]?
Its TGI is 3.62 µM.

What about the GI50 [57] of the same compound?
Its GI50 is 1.07 µM.

And the TGI [57]?
The TGI was 2.53 µM.

Reference: PubChem BioAssay (NCI)
